In a melting point compilation (Tetko et al.; mined from patent text by program, amines drawn as free bases though some values may be those of a salt) one finds melting point data, which are given here for 66 molecules.

SMILES strings stand for the structures.

With `CC1(C)CC(=O)C(S(=O)Cc2ccc(F)cc2)=C(O)C1` (stereo unspecified), the melting point lay in the range of 122 to 125 °C. For `COc1ccc2c(c1)c(CC(=O)O)c(C)n2C(=O)c1cccc(Cl)c1`, the melting point is 90 to 92 °C. The same measure for `CC(C)c1nc(COC(N)=O)n(Cc2ccccn2)c1Sc1cc(Cl)cc(Cl)c1`: 127 to 130 °C; for `O=c1ccc(S(=O)(=O)c2c[nH]c3ccccc23)n[nH]1`: 248 to 250 °C; for `CCN(CC)c1nc(N)nc(-c2cc(Cl)ccc2Cl)n1`: 137 to 138 °C. With `CCOC(=O)/C=C/c1cn(Cc2ccc(OCc3nc(-c4ccco4)oc3C)cc2)nc1OCc1ccc(OCc2nc(-c3ccco3)oc2C)cc1`, the melting point is 138 to 139 °C. The same measure for `COC(=O)c1cccc(CN2CCN(c3nc(C)c(C(C)=O)s3)C2=O)c1`: 122 to 124 °C. The same measure for `CC(C(=O)O)c1ccc(-c2ccc(Br)cc2Br)cc1` (stereo unspecified): 114 to 116 °C; for `O=C1Nc2ccc(F)cc2C(=O)N2CC[C@@H]12`: 216 to 217 °C.

For `O=C(Nc1ccc(-n2ccnn2)c(F)c1)OCc1ccccc1`, the melting point is 121 to 122 °C.

The molecule `CS(=O)(=O)Nc1cccc(Nc2nc(NCc3cccc(C#N)c3)c3nc[nH]c3n2)c1` came in with a melting point of 128 to 131 °C. The same measure for `Nc1cc(Br)ccc1-c1ccccc1F`: 40 to 42 °C. Then `COc1cc(OC)nc(NC(=O)N=NS(=O)(=O)C2OCCN2C)n1` (stereo unspecified), with 174 to 175 °C; and `C/C(=C\COC(=O)c1ccccc1)CCc1c(C)c(O)c(C)c(C)c1O`, with 112 to 114 °C; and `CSC1=Nc2ccncc2S(=O)(=O)N1C`, with 135 to 138 °C. With `OC(CN1CCNC1=S)c1cccc(C(F)(F)F)c1` (stereo unspecified), the melting point was 117 °C. Molecule `Cc1nc(-c2c(F)cccc2Cl)nn1-c1ccc(COc2ncc(C(F)(F)F)cc2Cl)cc1` registered a melting point of 96 to 97 °C.

As to `COc1ccc(-c2cc3ncc(SC)c(O)c3s2)cc1`, the melting point was in the range of 283 to 287 °C. With `COC(=O)c1cnc2c(O)cccc2c1`, the melting point amounted to 140 °C. Then `CCN(CCO[N+](=O)[O-])C(=O)COC(=O)c1cc(S(N)(=O)=O)c(Cl)cc1NCc1ccco1`, with 60 to 62 °C; and `O=C(Nc1ccc(C[C@H](NS(=O)(=O)NCC2CCCCC2)C(=O)O)cc1)c1c(Cl)cncc1Cl`, with 196 °C; and `CCOC(=O)c1cn(CC)c2nc(N3CCN(C)CC3)ncc2c1=O`, with 146 to 147 °C. Then `Cc1ccccc1C(=O)Nc1ccc(C(=O)N2CCCC(n3cccc3)c3ccccc32)cc1` (stereo unspecified), with 208 to 210 °C; and `CS(=O)(=O)Nc1ccc(C(O)CCCNCCC(=O)CCC2CCCC2)cc1` (stereo unspecified), with 101 to 102 °C. Then `Cc1cc(SC(C)C)c(NC(=O)CCCSc2nc3ccccc3o2)c(SC(C)C)n1`, with 128 to 129 °C. `CCOC(=O)N1CCN(c2nn(-c3ccc(F)cc3)c3ccccc23)CC1` gave a melting point of 109 to 111 °C. Then `CSC1CCn2c(CCc3ccccc3)nc3cccc1c32` (stereo unspecified), with 62.1 to 74.1 °C; and `CC(C)C1NCC(=O)N1CC(=O)NCC(N)=O` (stereo unspecified), with 65 to 70 °C; and `COC(=O)c1cccc2nnsc12`, with 130 to 133 °C. The same measure for `C=CCN1C2CCC1C1CCC2N1C(c1ccc(C(=O)N(C)C)cc1)c1cccc(O)c1` (stereo unspecified): 99 to 101 °C. As to `CC(C)n1nc(-c2ccccc2)c(-c2ccc(F)cc2)c1CBr`, the melting point lay within 93 to 95 °C. Then `Cc1cc(C#N)cc(C(=O)Nc2ccc(F)c(Cl)c2)n1`, with 204 °C; and `Cc1ccccc1[C@H](O)CCc1c(C(=O)N(C)C)cc2c(nc(C)n2C)c1O`, with 200 to 202 °C; and `COC(=O)C1CCN2C(=O)C(=O)c3cc([N+](=O)[O-])cc1c32` (stereo unspecified), with 144 to 145 °C. Then `CN(c1ccc(C2CCCCC2)cc1)c1nc(=O)c2cccnc2s1`, with 192 to 195 °C; and `CCCc1cc(Cl)c(OC(=S)N(C)C)c(C(C)=O)c1OC(C)=O`, with 86 to 88 °C. `N#Cc1ccc(C=Cc2ccc(N(CCO)CCO)cc2)cc1` had a melting point of 197 °C. Then `CNC(=O)c1cc2c(Oc3ccc(C(=O)N4CCOCC4)cc3)cncc2s1`, with 173 to 175 °C. `Cc1nc2c(s1)CN=C(c1ccccc1F)c1cc(Cl)ccc1-2` yielded a melting point of 147 to 149 °C. The same measure for `COc1cc(C(O)CN2CCC(Cc3ccccc3)CC2)on1` (stereo unspecified): 134 to 137 °C; for `COc1ccnc(CCc2nc3cccnc3[nH]2)c1`: 116 to 117 °C; for `Cc1ccc(S(=O)(=O)n2cc(C(C)O)c3ccc(C(=O)Nc4c(Cl)cncc4Cl)cc32)cc1` (stereo unspecified): 206 to 211 °C. Then `O=C1CCCC1n1nc(-c2c(-c3ccccc3)nn3ccccc23)ccc1=O` (stereo unspecified), with 167 to 168 °C; and `Cc1cc2c(cc1C)C(=O)C(C#N)C2=O`, with 209 to 210 °C. With `CC(C)c1cccc(C(C)C)c1OC(=O)NP(=O)(Oc1ccccc1)Oc1ccccc1`, the melting point lay in the range of 132 to 135 °C.

For `COC(=O)C1=C(C)NC(C)=C(P2(=O)OCCCO2)C1c1cccc([N+](=O)[O-])c1` (stereo unspecified), the melting point lay in the range of 221 to 223 °C. The same measure for `CC1=C(Cc2ccc(OC(F)(F)F)cc2)C(=O)c2ccccc2C1=O`: 64 to 65 °C; for `N#Cc1cc(C(=O)c2ccncc2)ccc1O`: 310 to 311 °C; for `COc1ccc2c(c1)SC(CCBr)C(=O)N2` (stereo unspecified): 142 to 143 °C. For the molecule `Cc1ccc(NC(=O)Nc2cc(C(C)(C)C)sc2CNC(=O)CN)cc1`, the melting point lay within 93 to 96 °C.

Take `O=C1NC(=O)C(c2cn3c4c(cccc24)CCC3)C1c1ccc(O)cc1` (stereo unspecified): the melting point was in the range of 105 to 107 °C. Take `COc1cccnc1C(=O)NCCNC(=O)OC(C)(C)C`: the melting point was 115 °C. The same measure for `CCN1CCC[C@H]1C(N)=O`: 107 to 108 °C; for `Cc1c(-c2ccccc2)c(N2CC[C@H](N(C)C)C2)c2oc(/C=C/c3ccccc3)nc2c1C#N`: 165 to 166 °C; for `O=C(CNc1ccc2[nH]c(=O)oc2c1)N1CCC(Cc2ccccc2)CC1`: 204 to 206 °C. For the molecule `Cc1ccc(C(=O)CO)cc1`, the melting point lay within 83 to 87 °C. `CCOC(=O)c1scnc1Cl` returned a melting point of 43 to 45 °C. Turning to `CCC(CC)Nc1cc(C)nc2c1nc(C)n2-c1c(C)cc(C)cc1C`, the melting point was in the range of 101 to 103 °C. Take `CS(=O)(=O)c1cccc(Br)c1`: the melting point fell in the range of 63 to 64 °C. In turn, `C[C@@H]1C[C@@H](O)CC(C)(C)C1=O` returned a melting point of 49 to 50 °C. The same measure for `Brc1cnc(SCc2cccs2)nc1`: 87 °C; for `CC(C)(C)OC(=O)CN(C(=O)CNC(=O)Nc1cnc2ccccc2c1)c1ccccc1`: 191 °C. In the case of `O=C(CNC(=O)c1ccccc1)NC1CCN(CCc2c[nH]c3ccccc23)CC1`, the melting point lay within 236 to 240 °C. `COc1cc(Br)ccc1Oc1ccccc1O` displayed a melting point of 107 to 109 °C.

The molecule `COc1ccc(C(OCC2OC(n3cc(C)c(=O)[nH]c3=O)CC2O[Si](C)(C)C(C)(C)C)(c2ccccc2)c2ccc(OC)cc2)cc1` (stereo unspecified) returned a melting point of 214 °C.

The molecule `COC(=O)c1c(-c2ccc(F)cc2)nc(N)nc1C(C)C` had a melting point of 146 to 147 °C.
